Measurements reported in US8791132B2, “Compounds and methods for treatment of hypertension” (Medivation Technologies, Inc., priority 2011, dated 2014).
Values joined by “and” are separate entries in the source; they are usually repeats but may differ in a detail not shown here. Identical values can stand only once. Like-named read-outs stand apart in the source and are kept apart here.

What was measured:
[1] = target: T1, human recombinant adrenergic α2A receptor (Homo sapiens, UniProt P08913); experiment: Radioligand binding, adrenergic α2A ([3H]MK-912)
T1 construct: expressed in transfected cells; host or cells: insect Sf9 cells
T1 sequence (P08913 1-465): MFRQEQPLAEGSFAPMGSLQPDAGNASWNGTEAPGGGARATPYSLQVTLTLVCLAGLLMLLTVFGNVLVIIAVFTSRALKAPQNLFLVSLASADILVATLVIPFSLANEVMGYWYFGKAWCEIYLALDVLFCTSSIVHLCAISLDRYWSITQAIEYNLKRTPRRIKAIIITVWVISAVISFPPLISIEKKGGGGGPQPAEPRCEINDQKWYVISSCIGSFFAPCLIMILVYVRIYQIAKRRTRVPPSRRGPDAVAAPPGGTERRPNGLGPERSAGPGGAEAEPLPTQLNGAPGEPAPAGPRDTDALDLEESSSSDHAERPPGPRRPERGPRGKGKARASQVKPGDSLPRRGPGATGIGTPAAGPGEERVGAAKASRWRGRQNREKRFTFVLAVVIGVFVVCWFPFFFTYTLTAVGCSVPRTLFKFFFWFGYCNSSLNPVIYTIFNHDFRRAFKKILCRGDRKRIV
Procedure, shortened: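 Displacement of 1 nM [3H]MK-912 from receptor produced in insect Sf9 cells was measured after 60 min at 25 °C. Readout: percent inhibition of specific binding.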

[2] = target: T2, human recombinant adrenergic α2B receptor (Homo sapiens, UniProt P18089); experiment: Radioligand binding, adrenergic α2B ([3H]Rauwolscine); settings: for Percentage inhibition of ligand binding, Adrenergic α2B (0.03 μM) / Percentage inhibition of ligand binding, Adrenergic α2B: 0.03 µM; for Ki: read-out: Ki α2B
T2 construct: expressed in transfected cells; host or cells: CHO-K1
T2 sequence (P18089 1-450): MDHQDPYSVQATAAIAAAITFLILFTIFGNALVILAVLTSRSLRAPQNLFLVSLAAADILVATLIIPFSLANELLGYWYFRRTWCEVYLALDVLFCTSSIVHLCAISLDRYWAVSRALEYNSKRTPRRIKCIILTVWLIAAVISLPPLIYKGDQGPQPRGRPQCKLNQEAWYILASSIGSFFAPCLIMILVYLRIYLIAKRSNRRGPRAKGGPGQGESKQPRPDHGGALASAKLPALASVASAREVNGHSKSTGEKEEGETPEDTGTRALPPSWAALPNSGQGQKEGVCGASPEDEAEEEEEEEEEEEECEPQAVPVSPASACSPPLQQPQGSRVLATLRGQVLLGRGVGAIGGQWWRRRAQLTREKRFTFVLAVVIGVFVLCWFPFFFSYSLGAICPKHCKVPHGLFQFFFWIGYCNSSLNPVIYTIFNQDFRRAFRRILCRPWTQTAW
Procedure, shortened: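 Membranes from CHO-K1 cells expressing human recombinant α2B, in 50 mM Tris-HCl pH 7.4, 12.5 mM MgCl2, 1 mM EDTA, 0.2% BSA, incubated with compound and 2.5 nM [3H]Rauwolscine, 60 min, 25 °C.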

[3] = target: T3, rat adrenergic α1B receptor (Rattus norvegicus, UniProt P15823); experiment: Radioligand binding, adrenergic α1B ([3H]Prazosin); settings: for Percentage inhibition of ligand binding, Adrenergic α1B (0.1 μM) / Percentage inhibition of ligand binding, Adrenergic α1B: 0.1 µM
T3 construct: rat adrenergic α1B receptor obtained from Wistar Rat liver; from tissue; host or cells: Wistar rat liver
T3 sequence (P15823 1-515): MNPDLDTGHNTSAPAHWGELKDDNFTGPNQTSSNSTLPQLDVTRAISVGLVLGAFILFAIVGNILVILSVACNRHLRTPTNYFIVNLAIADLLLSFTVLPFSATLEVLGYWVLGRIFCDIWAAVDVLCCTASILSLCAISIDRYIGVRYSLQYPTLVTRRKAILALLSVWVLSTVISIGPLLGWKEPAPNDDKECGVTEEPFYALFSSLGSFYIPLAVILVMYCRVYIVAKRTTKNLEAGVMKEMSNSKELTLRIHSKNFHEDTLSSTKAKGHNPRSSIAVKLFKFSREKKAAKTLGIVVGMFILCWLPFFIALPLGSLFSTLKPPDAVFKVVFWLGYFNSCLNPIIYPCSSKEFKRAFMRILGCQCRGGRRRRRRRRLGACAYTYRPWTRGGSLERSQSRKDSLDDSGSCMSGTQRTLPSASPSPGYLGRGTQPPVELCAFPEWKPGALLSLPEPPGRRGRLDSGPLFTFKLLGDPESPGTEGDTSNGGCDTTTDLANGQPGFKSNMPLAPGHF
Procedure, shortened: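 Rat α1B receptor from Wistar rat liver was incubated with 0.25 nM [3H]prazosin for 60 min at 25 °C in 50 mM Tris-HCl, pH 7.4, 0.5 mM EDTA. Non-specific binding was defined with 10 μM phentolamine. Bound radioligand was measured by filtration and counting, reported as percent inhibition of specific binding.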

[4] = compound at 0.1 μM, [3H]MK-912, repeat datapoints each shown, 0.1 µM
[5] = compound at 0.03 μM, [3H]Rauwolscine, repeat datapoints each shown
[6] = compound at 0.1 μM, [3H]Prazosin, repeat datapoints each shown
[7] = read-out: Percentage inhibition of ligand binding, Adrenergic α2A (0.1 μM), compound at 0.1 μM, [3H]MK-912, repeat datapoints each shown
[8] = read-out: Percentage inhibition of ligand binding, Adrenergic α2B (0.03 μM), compound at 0.03 μM, [3H]Rauwolscine, repeat datapoints each shown
[9] = read-out: Percentage inhibition of ligand binding, Adrenergic α1B (0.1 μM), compound at 0.1 μM, [3H]Prazosin, repeat datapoints each shown
[10] = compound at 0.03 μM, [3H]Rauwolscine, repeat assays, each datapoint shown
[11] = compound at 0.1 μM, [3H]Prazosin, repeat assays, each datapoint shown

SMILES | Percentage inhibition of ligand binding, Adrenergic α2A (0.1 μM) [1, 4] [%] | Percentage inhibition of ligand binding, Adrenergic α2B (0.03 μM) [2, 5] | Percentage inhibition of ligand binding, Adrenergic α1B (0.1 μM) [3, 6] [%] | inhibition at 0.1 µM [1, 7] [%] | inhibition at 0.03 µM [2, 8] [%] | inhibition at 0.1 µM [3, 9] [%] | also measured
Cc1cnc2c(c1)c1c(n2CC(C)(O)c2ccc(C)nc2)CCN2CCCC12 (single isomer, unassigned) [148a] | −5 | 52% | 23 | – | – | – | –
CC1c2c(c3cc(Cl)ccc3n2CC(O)c2ccncc2)CCN1C (stereo not shown) [II-72] | – | – | – | – | – | – | inhibition at 0.1 µM ([1]; 0.1 μM compound, read-out: Percentage inhibition of ligand binding, Adrenergic α2A): 25%; inhibition at 0.03 µM ([2]; 0.03 μM compound, read-out: Percentage inhibition of ligand binding, Adrenergic α2B): 47%; inhibition at 0.1 µM ([3]; 0.1 μM compound, read-out: Percentage inhibition of ligand binding, Adrenergic α1B): 30%
C/C(=C\n1c2c(c3cc(C)ccc31)C1CCCN1CC2)c1ccc(F)cc1 (single isomer, unassigned) [194b, 7-(2-(4-fluorophenyl)prop-1-enyl)-10-methyl-2,3,5,6,7,11c-hexahydro-1H-indolizino[7,8-b]indole] | – | – | – | 94 | 103 | 100 | –
Cc1ccc2c(c1CO)c1c(n2CC(O)c2ccncc2)CCN(C)C1 (stereo not shown) [II-150, 2-(9-(hydroxymethyl)-2,8-dimethyl-3,4-dihydro-1H-pyrido[4,3-b]indol-5(2H)-yl)-1-(pyridin-4-yl)ethanol] | – | – | – | 5 | 30 | 14 | –
COc1ccc(C(O)Cn2c3c(c4cc(C)ccc42)CCN(C)C3)cc1 (single isomer, unassigned) [20b, 2-(2,6-dimethyl-1,2,3,4-tetrahydro-β-carbolin-9-yl)-1-(4-methoxy-phenyl)-ethanol] | – | – | – | – | – | – | Percentage inhibition of ligand binding, Adrenergic α2A ([1]; compound at 0.1 μM, [3H]MK-912, repeat assays, each datapoint shown, 0.1 µM): 28%; Percentage inhibition of ligand binding, Adrenergic α2B [2, 10]: 36%; Percentage inhibition of ligand binding, Adrenergic α1B [3, 11]: 94%
Cc1cnc2c(c1)c1c(n2CC(C)(O)c2ccc(F)cc2)CCN2CCCC12 (single isomer, unassigned) [II-149a, 2-(4-fluoro-phenyl)-1-(9-methyl-1,2,3,4,5,10c-hexahydro-3a,6,7-triazacyclopenta[c]fluoren-6-yl)-propan-2-ol] | 53 | 104% | 90 | – | – | – | –
CN1CCc2c(c3cc(Cl)cnc3n2CC(C)(O)c2ccc(C(F)(F)F)nc2)C1 (single isomer, unassigned) [II-109b] | −10 | 2% | 5 | – | – | – | –
Cc1ccc2c(c1)c1c(n2CC(C)(O)c2cccnc2)CCN(C)CC1 (stereo not shown) [II-135a, 1-(3,9-dimethyl-2,3,4,5-tetrahydroazepino[4,5-b]indol-6(1H)-yl)-2-(pyridin-3-yl)propan-2-ol] | – | – | – | -3 | 34 | 48 | –
Cc1cnc2c(c1)c1c(n2CCc2cccnc2)CCN2CCCC12 (single isomer, unassigned) [134b, 9-methyl-6-(2-pyridin-3-yl-ethyl)-2,3,4,5,6,10c-hexahydro-1H-3a,6,7-triaza-cyclopenta[c]fluorene] | 29 | 103% | 95 | 23 | 102 | 93 | Ki [1]: 102 nM; Ki [2]: 0.43 nM; inhibition at 0.03 µM ([3]; read-out: Percentage inhibition of ligand binding, Adrenergic α1B (0.03 μM), compound at 0.03 μM, [3H]Prazosin, repeat datapoints each shown): 78%
CC(O)(Cn1c2c(c3cc(Cl)cnc31)CNCC2)c1ccncc1 (single isomer, unassigned) [12b, 1-(3-chloro-5,6,7,8-tetrahydro-1,6,9-triaza-fluoren-9-yl)-2-pyridin-4-yl-propan-2-ol] | – | – | – | – | – | – | Percentage inhibition of ligand binding, Adrenergic α2A ([1]; compound at 0.1 μM, [3H]MK-912, repeat assays, each datapoint shown): 3%; Percentage inhibition of ligand binding, Adrenergic α2B [2, 10]: 21%; Percentage inhibition of ligand binding, Adrenergic α1B [3, 11]: 8%
Cc1ccc2c(c1)c1c(n2CC(OC(=O)c2ccncc2)c2ccncc2)CCN(C)C1 (stereo not shown) [compound 147, isonicotinic acid 2-(2,8-dimethyl-1,2,3,4-tetrahydro-pyrido[4,3-b]indol-5-yl)-1-pyridin-4-yl-ethylester] | 19 | 91% and 102% | 7 | – | – | – | Ki [2]: 1.49 nM
Cc1ccc2c(c1)c1c(n2CC(O)c2ccncc2)C(C)(C)CN(C)C1 (stereo not shown) [compound 71, 1-pyridin-4-yl-2-(2,4,4,8-tetramethyl-1,2,3,4-tetrahydro-pyrido[4,3-b]indol-5-yl)-ethanol] | – | – | – | – | – | – | inhibition at 0.1 µM ([1]; compound at 0.1 μM, [3H]MK-912, repeat assays, each datapoint shown, read-out: Percentage inhibition of ligand binding, Adrenergic α2A): 11%; inhibition at 0.03 µM ([2]; compound at 0.03 μM, [3H]Rauwolscine, repeat assays, each datapoint shown, read-out: Percentage inhibition of ligand binding, Adrenergic α2B): 9%; inhibition at 0.1 µM ([3]; compound at 0.1 μM, [3H]Prazosin, repeat assays, each datapoint shown, read-out: Percentage inhibition of ligand binding, Adrenergic α1B): 11%
CN1CCc2c(c3ccncc3n2CC(O)c2ccncc2)C1 (stereo not shown) [II-242] | – | – | – | 2 | 3 | 4 | –
Cc1ccc2c(c1)c1c(n2CC(N)c2ccc(F)cc2)CCN(C)C1 (single isomer, unassigned) [II-11b, 2-(2,8-dimethyl-3,4-dihydro-1H-pyrido[4,3-b]indol-5(2H)-yl)-1-(4-fluorophenyl)ethanamine] | – | – | – | – | – | – | Percentage inhibition of ligand binding, Adrenergic α2A ([1]; 0.1 μM compound, 0.1 µM): 43%; Percentage inhibition of ligand binding, Adrenergic α2B ([2]; 0.03 μM compound): 89%; Percentage inhibition of ligand binding, Adrenergic α1B ([3]; 0.1 μM compound): 76%
CN1CCc2c(c3ncccc3n2CC(O)c2ccncc2)C1 (stereo not shown) [II-241] | – | – | – | -1 | -1 | 5 | –
Cc1ccc2c(c1)c1c(n2CC(C(N)=O)c2ccncc2)CCN(C)C1 (stereo not shown) [II-263] | – | – | – | 10 | 10 | 2 | –
